Measured values taken from US7635722B1, “Chemical induced intracellular hyperthermia” (priority 1998, dated 2009).

Columns and labels:
Borrelia burgdorferi = assay: DNP hyperthermia, Lyme disease (Example 3); format: in vivo, human
Protocol: Pretreatment protocol: the evening prior treatment the patient was instructed not to eat and dress in cotton undergarments. Approximately 4 hours prior to treatment 2 mg alprazolam was administered by mouth. The patient dressed themself into a dry cold water immersion suit (Stearns, previously described) with headgear. Monitoring sensors, including EKG display, IV fluids and Foley catheter were attached and the suit was zipped closed. The patient opted for oxygen supplementation. The modified face mask was connected to the TEEM 100 metabolic Analysis System for V02 measurements. Data was recorded as previously described.
The patient was infused with 1 mg/kg DNP over a 2 minute period. V02 increased and stabilized at 250 cc/min, 5.3 cc/kg/min. A second dose of 2.0 mg/kg was infused over a 2 minute period and the V02 peaked at 400 cc/min, 8.8 cc 02/kg/min. An additional dose of 1.0 mg/kg DNP was given 30 minutes after the second dose. The V02 increased and reached a stable plateau at 600 cc/min, […]. […] V02 increased back to 680-710 cc/min. […] The patient periodically requested the V02 monitoring mask be removed during the hyperthermia treatment period. They were accommodated with removal of the mask on two occasions for periods not exceeding 10 minutes. […] The treatment was terminated 4 hours and 10 minutes after the initial dose of DNP. Twenty five minutes after the patient was removed from the neoprene survival suit, the rectal core temperature dropped to 38.5° C. Normothermia was achieved approximately 60 minutes after cessation of therapy and removal from the survival suit. Approximately 6.5 to 7 hours after treatment the patient experienced chills, an increase in oral temperature to 38.7 degrees centigrade and malaise. IV fluids and the dopamine drip at 2 mcg/kg/min were restarted and the patient was closely observed. Their symptoms subsided over 3 hours and by the next day they felt active and hungry. It was surmised they may have experienced a delayed Jarisch-Herxheimer reaction. The patients monitored treatment flow chart is FIG. 18.

[1] = test system: peritoneal carcinomatosis, undifferentiated adenocarcinoma; assay: DNP with vasopressor and chemotherapy, peritoneal carcinomatosis (Example 4); format: in vivo, human
Source text: It was elected to treat the patient with hyperthermochemotherapy. Treatment consisted of DNP, and combination chemotherapy with carboplatin, mitomycin, and doxifluridine. An α-1 adrenergic receptor agonist was used to minimize peripheral vascular dilation and heat loss.
Pretreatment protocol: the patient was transfused with three units of packed red blood cells. A Foley catheter was inserted on each day of treatment. They were covered in a water soaked blanket containing a polyethylene lining. A shower cap with towels was used to prevent heat loss from the head. Intravenous lines were placed into both arms with 19 gauge intracaths. EKG, heart rate, rectal thermistor, and V02 monitors were attached. Oxygen supplemented facemask and equipment was attached and data monitored as previously described under Example 1.
Treatment protocol: the patient was given chemotherapy […]. The total doses of carboplatin, and mitomycin were 450 mg and 24 mg IV respectively on day 1 and last day of week 6. Doxifluridine, 600 mg, was orally administered every day for 5 days and repeated the last 5 days of week 6. On the day of DNP infusion, baseline recordings were established for 10 minutes. Mephenteramine sulfate, 30 mg, was given by intramuscular injection. Ten minutes later their heart rate increased to 96 and […] V02 increased from 250 to 320 cc/min. V02, heart rate and blood pressure stabilized after 20 minutes and they were given an initial dose of 1 mg/kg DNP. Additional 0.5 mg/kg infusions of DNP were administered in 3 successive infusions spaced 20 minutes apart. […] The DNP treatment protocol was repeated every fourth day for a period of 6 weeks.

heat shock protein = assay: DNP induction of autologous heat shock proteins; format: in vivo, human; details: after cessation of DNP
Protocol: DNP would be given orally at doses to increase the V02 from 1.5 to 5 times above normal per day for a period of 2-6 days or, as an infusion at doses that would increase V02 and core body temperatures no greater than 39° C. for periods of 5 to 6 hours or, intravenous doses of DNP alone, with vasopressors, or other short acting metabolic stimulators, that would increase V02 to equivalent core temperatures of 40-41° C. for periods of 15-30 minutes. Within 8-48 hours after cessation of DNP, the patient would have maximum heat shock protein production. Such DNP induced stress would improve clinical outcome by induction of cellular heat shock protein synthesis with protection of the patient's, organs, tissues and cells from subsequent ischemic surgical or traumatic procedures.

glioma = assay: DNP enhanced PET-FDG scan, glioma (Example 7); format: in vivo, human; set-up: key to metabolic grade of FDG uptake, selected target / metabolic grade, hypermetabolic component in the tumor area / metabolic grade, remaining viable tumor: I: FDG uptake less than contralateral white matter; II: uptake between the levels in contralateral white and gray matter; III: FDG uptake equal to or greater than in contralateral gray matter
Source text: Pretreatment protocol: three days prior to DNP dosing and repeat PET-FDG scan, the patient's dosage of phenyloin was increased from 100-mg three times daily to 200-mg three times a day. The same positron emission tomogram, a CTI-Siemens 933/08-12 which provides a 6.75-mm adjacent slices and in-plane spatial resolution (full-width at half maximum) of ˜5 mm, was to be used. The highest level of non to DNP stimulated FDG uptake in the tumor area was to be compared and qualitatively graded by two radiologists. Independently, each investigator was to visually evaluate the positron emission tomogram and use the following metabolic grading scale: I, FDG uptake less than contralateral white matter; II, uptake between the levels in contralateral white and gray matter; III, FDG uptake equal to or greater than in contralateral gray matter.
Diagnostic—treatment protocol: the patient was given a 300 mg capsule of DNP (approximately 4 mg/kg body weight) three hours prior to undergoing a PET-FDG scan. Forty minutes prior to the emission scan they were intravenously injected with a bolus of FDG according to standard methodology. Immediately prior to the 20-minute emission scan the patients VO2 uptake was 40% above that at baseline. The patients DNP/VO2 flow chart is FIG. 24.

[2] = man and animals accidentally intoxicated; cited from earlier work
[3] = DNP enhancement, one year after diagnosis and therapy

O=[N+]([O-])c1ccc(O)c([N+](=O)[O-])c1 [DNP, 2,4-dinitrophenol]
repeat spinal fluid analysis, Borrelia DNA by PCR (Borrelia burgdorferi; after treatment): no detectable Borrelia DNA by PCR | spinal fluid culture on Barbour-Stoenner-Kelly II medium (Borrelia burgdorferi; three months later): negative | EKG (Borrelia burgdorferi; two months follow-up): resolution of their first degree A-V block | symptoms (Borrelia burgdorferi; two months follow-up): arthralgias, myalgias, malaise, fatigue and memory deficits have disappeared | magnetic resonance imaging and echo of the abdomen ([1]; after combined treatments): complete resolution of peritoneal metastasis | ascites ([1]; end of the sixth week, DNP with carboplatin, mitomycin, doxifluridine): resolved | survival ([1]; nine and a half months after treatment): alive without any evidence of tumor reoccurrence | serum levels of amylase and all tumor markers ([1]; week 6, combined treatments): normal at week 6 | time to maximum heat shock protein production (heat shock protein): 8 to 48 h | DNP enhanced PET-FDG scan finding (glioma; 300 mg oral DNP, none without DNP): two areas of hypermetabolism | metabolic grade of FDG uptake, selected target (glioma; DNP enhanced PET-FDG scan): III | metabolic grade, hypermetabolic component in the tumor area (glioma; [3]): II | metabolic grade, remaining viable tumor (glioma; [3]): I | hyperthermia [2]: up to 49 °C
